What was measured:
Type in all cases: physicochemical
[1] = Ethanol/hydrocarbon mixtures slurry study
Method: Using the methods described above for the Form A input and amorphous input experiments, 5×20 mg of Form A slurries and 5×20 mg of amorphous input slurries were prepared by adding 1 mL of solvent (see Table 16 below) to each vial and the resulting slurries were agitated for 24 h at 25° C. After 24 h, aliquots of solid were isolated via centrifugal filtration and analysed by XRPD.

[2] = Form investigation in buffered media; conditions: for XRPD Pattern / pH (24 h): 24 h at 25° C.
Method: To investigate the polymorphic landscape of compound 1 in buffered systems, 5×20 mg of Form A slurries and 5×20 mg of amorphous slurries (amorphous material prepared using the method described in the above hydration mapping experiments) were prepared by adding 1 mL of buffer to each vial and the resulting slurries were agitated for 24 h at 25° C. The pH was measured post-buffer addition and after 24 h agitation. After 24 h, aliquots of solid were isolated via centrifugal filtration and analysed by XRPD.

[3] = Hydration mapping starting with amorphous compound 1
Method: To establish the hydration map of compound 1, solutions with varying water activity (aw) were prepared and the aw was measured using a water activity meter. Table 13 below details the solvent systems investigated and their corresponding measured water activities.
To prepare amorphous material, 480 mg of Form A of compound 1 was weighed into a vial before being dissolved in 24 mL 1,4-dioxane. The resulting solution was then split evenly between 24 vials before being placed in the chamber of a freeze dryer at −50° C. to completely freeze the samples. The samples were then freeze dried overnight (approx. 18 h) and fluffy off-white solids were recovered. A small sub-sample of solid from one vial was analyzed by XRPD to confirm that amorphization had occurred. Using the other 23 vials of amorphous material, 1 mL of the solutions prepared above was added to each vial to prepare slurries. As before, where solutions were observed a brief manual agitation, an additional ˜10 to 20 mg of amorphous material was added to prepare a slurry. Additional solid was added to the 2-MeTHF, acetone/water (aw of 0.14 and 0.28), methanol/water (aw of 0.11) and acetonitrile/water (aw of 0.11) samples. All slurries were then agitated for 72 h at 25° C. After 72 h, aliquots of solid were isolated via centrifugal filtration and analyzed by XRPD.

- XRPD pattern observed ([1]; EtOH/Cyclohexane (50:50% v/v), aw 0.025, 24 h at 25° C.): Form E
- XRPD pattern observed ([1]; EtOH/Dodecane (50:50% v/v), aw 0.024, 24 h at 25° C.): Form H^A
- XRPD pattern observed ([1]; EtOH/Hexane (50:50% v/v), aw 0.018, 24 h at 25° C.): Form E
- XRPD pattern observed ([1]; EtOH/Methylcyclohexane (50:50% v/v), aw 0.019, 24 h at 25° C.): Form E
- XRPD pattern observed ([1]; EtOH/Octane (50:50% v/v), aw 0.019, 24 h at 25° C.): Form E
- XRPD Pattern ([2]; NaOH (0.2M)): Form C
- XRPD Pattern ([2]; pH 1.2 (HCl—KCl)): HCl Salt Form
- XRPD Pattern ([2]; pH 4.5 (acetate)): Form F
- XRPD Pattern ([2]; pH 6.8 (phosphate)): Form C
- XRPD Pattern ([2]; pH 8 (PBS)): Form H^B
- pH (Post-Buffer Addition) ([2]; slurry in NaOH (0.2M)): 11.97
- pH (24 h) ([2]; slurry in NaOH (0.2M)): 11.87
- pH (Post-Buffer Addition) ([2]; slurry in pH 1.2 (HCl—KCl)): 1.21
- pH (24 h) ([2]; slurry in pH 1.2 (HCl—KCl)): 1.21
- pH (Post-Buffer Addition) ([2]; slurry in pH 4.5 (acetate)): 4.53
- pH (24 h) ([2]; slurry in pH 4.5 (acetate)): 4.55
- pH (Post-Buffer Addition) ([2]; slurry in pH 6.8 (phosphate)): 6.85
- pH (24 h) ([2]; slurry in pH 6.8 (phosphate)): 6.87
- pH (Post-Buffer Addition) ([2]; slurry in pH 8 (PBS)): 8.01
- pH (24 h) ([2]; slurry in pH 8 (PBS)): 8.11
- XRPD pattern observed, 72 h ([3]; 2-MeTHF, aw 0.0378, 25° C.): Forms A, H^A and D
- XRPD pattern observed, 72 h ([3]; Acetone/Water, aw 0.1363, 25° C.): Form H^A
- XRPD pattern observed, 72 h ([3]; Acetone/Water, aw 0.2621, 25° C.): Form H^A
- XRPD pattern observed, 72 h ([3]; Acetone/Water, aw 0.5455, 25° C.): Form H^A
- XRPD pattern observed, 72 h ([3]; Acetone/Water, aw 0.7082, 25° C.): Form H^A
- XRPD pattern observed, 72 h ([3]; Acetone/Water, aw 0.9439, 25° C.): Form H^A and possibly Form C
- XRPD pattern observed, 72 h ([3]; EtOH/Heptane, aw 0.0300, 25° C.): Form E
- XRPD pattern observed, 72 h ([3]; EtOH/Water, aw 0.1580, 25° C.): Form H^A
- XRPD pattern observed, 72 h ([3]; EtOH/Water, aw 0.3377, 25° C.): Form H^A
- XRPD pattern observed, 72 h ([3]; EtOH/Water, aw 0.4986, 25° C.): Form H^A
- XRPD pattern observed, 72 h ([3]; EtOH/Water, aw 0.7600, 25° C.): Form A and Form H^A and additional peaks
- XRPD pattern observed, 72 h ([3]; EtOH/Water, aw 0.9005, 25° C.): Form A and Form H^A and additional peaks
- XRPD pattern observed, 72 h ([3]; MeCN/Water, aw 0.1060, 25° C.): Form H^A
- XRPD pattern observed, 72 h ([3]; MeCN/Water, aw 0.3664, 25° C.): Form H^A
- XRPD pattern observed, 72 h ([3]; MeCN/Water, aw 0.5573, 25° C.): Form H^A
- XRPD pattern observed, 72 h ([3]; MeCN/Water, aw 0.7300, 25° C.): Form H^A
- XRPD pattern observed, 72 h ([3]; MeCN/Water, aw 0.8946, 25° C.): Form H^A
- XRPD pattern observed, 72 h ([3]; MeOH/Water, aw 0.0963, 25° C.): Form H^A
- XRPD pattern observed, 72 h ([3]; MeOH/Water, aw 0.3242, 25° C.): Form H
- XRPD pattern observed, 72 h ([3]; MeOH/Water, aw 0.5145, 25° C.): Form H^A
- XRPD pattern observed, 72 h ([3]; MeOH/Water, aw 0.6965, 25° C.): Form H^A
- XRPD pattern observed, 72 h ([3]; MeOH/Water, aw 0.9294, 25° C.): Form C
- XRPD pattern observed, 72 h ([3]; Water/2-MeTHF, aw 0.5286, 25° C.): Form H^A
Compound: Cc1ccc(-c2noc([C@H]3C[C@@H]3F)n2)cc1NC(=O)c1cnc2ccccn12 [Amorphous Compound 1, N-(5-(5-((1R,2S)-2-fluorocyclopropyl)-1,2,4-oxadiazol-3-yl)-2-methylphenyl)imidazo[1,2-a]pyridine-3-carboxamide]

Reference: patent publication US11767319B2, “Crystalline forms of a selective c-kit kinase inhibitor” (Third Harmonic Bio, Inc., priority 2020, dated 2023)
